# Data reported in patent US20160129078A1, “Rhomboid Proteins and Uses Thereof” (Queen's University at Kingston, priority 2014, published 2016).
# Experiments:
# yeast [1] = test: Sensitization of yeast to fungicidal agents AmB and Nys; type: cell-based, Saccharomyces cerevisiae; settings: range of 0 to 1% (v/v), no rhomboid protein, one hour
# yeast [2] = test: as above; type: cell-based, Saccharomyces cerevisiae; settings: for yeast cell survival, fungicide alone: sub-lethal levels (1% AmB, 0.5% Nys), no rhomboid protein; for sensitization of yeast to antifungals AmB and Nys: exogenous protein co-delivered with sub-lethal AmB and Nys, as Example 13
# Experimental: Experiments were conducted to assess the ability of the Arabidopsis At1g74130 proteins or variants to sensitize yeast to the antifungal agents Amphotericin B (AmB) and Nystatin (Nys). Overall, these assays were conducted in a manner similar to that designed for bacteria (Example 9). In addition to the components mixed with the added proteins or variants, the antifungal AmB was also utilized as part of the delivery system. The AmB drug contains small quantities of the detergent deoxycholate, which may also assist in the delivery of proteins into the cell, as well as function as a pore forming agent itself. […] The effective co-delivery sub-lethal concentrations of the two antifungal agents or protein had little or no effect when provided individually. FIGS. 17 and 18 show results of the yeast sensitivity assays for AmB and Nys. […] In FIG. 17, the “Yeast Control” bars represent yeast cells given mock treatments with culture media (YPD) alone, YPD plus 1% AmB, YPD plus 0.5% Nys, and YPD plus 1% AmB and 0.5% Nys, respectively. The “BSA Control” bars represent another set of mock treatments with yeast cells. This set utilized the same set-up as the Yeast Control set but with added control bovine serum albumin proteins (BSA) (dissolved in the elution buffer, the same buffer used for the purification of the recombinant At1g74130 rhomboid proteins or variants). These assays represent another variation of negative controls for rhomboid protein. The “Elution Control” bars represent yeast cells mock treated using the same set-up as in the Yeast Control set but with added elution buffer alone. This variation of control assays was designed to assess for potential toxic impacts when combining elution buffer and the listed drugs, as well any effects originating from components of the elution buffer itself. The composition of the elution buffer is provided above in Example 5. With the exception of Nys, these treatments represent the first step and occur for 45 minutes before the second step when exposure to fungicides takes place. Within each set of bars, where applicable, the second 15-minute step treatment occurred with a sub-lethal dose of Nys. After a total of one hour, the treated yeast cells were plated on non-selective YPD agar plates. Plates were grown 2-3 days at 27-30° C. and assessed for surviving cell numbers (measuring cell death). Images were also taken to document cell and colony growth characteristics.
# In the experimental assays, the sensitizing properties of At1g74130 or variants (sensitizing variants) were tested by adding 10 ug protein (At1g74130 or variants in elution buffer) to yeast cells (300-500 cells). To reiterate in all cases, the components were added to cultures and mixed for one hour, where Nys was added and incubated for the last 15 minutes of the treatment. Pre-treatment was designed to permit AmB and At1g74130 proteins to establish and work prior to adding Nys. After the one hour incubation, 500 cells were plated on non-selective YPD agar media and grown for 48 hours at 30′C.
# The sub-lethal levels of fungicides to use in these assays were determined using dosage experiments. These assays were conducted on yeast cells without added rhomboid proteins or variants. The dosages of AmB tested ranged from 0 to 5% (v/v). […] Likewise, the Nys level was determined using a range of 0.5 to 2.5%. Yeast cells were treated for one hour with fungicides in a total volume of 400 μl YPD media before plating.
# Since both the AmB buffer contained small quantities of detergent (deoxycholate being the main one), an experiment was done in which different amounts (1% and 10%) of deoxycholate were added to yeast cells to ascertain any effects. Adding deoxycholate had little effect on yeast.
# This set of yeast assays was conducted in the same manner described above (Example 13) and employed the same controls and combinations. […]
# [3] = tested on: ampicillin resistant E. coli; test: Sensitization of bacteria to ampicillin by exogenous rhomboid protein; type: cell-based, Escherichia coli
# Experimental: Experiments were conducted to assess the ability of At1g74130 proteins or variants to sensitize bacteria to the antibiotic ampicillin, using “super-resistant” E. coli (multi-copy pET20b plasmid-based ampicillin-resistant lab strains). This model is considered the so-called “SuperBug” model, as commonly referred to in the public domain and media.
# Control assays were conducted on cells without added At1g74130 or variants (sensitizing variants) to determine the delivery system to use and the appropriate levels of ampicillin to use. Control assays were also conducted to determine if the 5% (v/v) DMSO delivery system exerted any effects. Bacterial cells, usually 800-1000, were mock treated with Luria Broth (LB) media or 5% (v/v) DMSO for 15 minutes prior to exposure to a 30-45 minute exposure to ampicillin (1.25 mg/ml or 1.5 mg/ml). Total volumes of 200 μl were used in these assays. The treated-exposed cells were then plated onto non-selective LB agar plates and allowed to grow overnight to assess the level of cell death or susceptibility to ampicillin. The ampicillin range found useful for these assays was between 1.25 mg/ml to 1.5 mg/ml. This range mirrored the observations reported in an earlier section above with transgenic bacterial cells and ampicillin susceptibility. […]
# bacteria = test: Sensitization of bacteria to tetracycline by exogenous rhomboid protein; type: cell-based, Escherichia coli; settings: tetracycline 15 ug/ml
# Experimental: Experiments were conducted to assess the ability and the utility of At1g74130 protein variants to sensitize bacteria to another antibiotic, tetracycline. In bacteria, tolerance or resistance to tetracycline is facilitated by a mechanism different from the ampicillin resistance assayed in Example 9. Unlike the breakdown of ampicillin outside the bacterial cells by secreted ampicilliase, tetracycline resistance in bacteria is based largely on the continual and effective pumping of tetracycline out of the cell by proteinaceous membrane pumps. To assess the utility of the At1g74130 for sensitizing bacteria to tetracycline, these bacterial assays were conducted in the same manner described in Example 9. The same controls and combinations were used. The final treatment level of tetracycline used in place of the ampicillin treatment was 15 ug/ml.
# Experiments were conducted to assess the ability and the utility of a human rhomboid type or variant to sensitize bacteria to tetracycline. These bacterial assays were conducted in the same manner described above for the other rhomboid variants and in Example 9. The same controls and combinations were used. The At1g74130 L was the control for UBAC2 in this set of assays. The previously observed behaviours and responses were not observed for UBAC2 in this setting with the antibiotic tetracycline (FIG. 16).
molecule,measurement,setting,value
"C[C@@H]1[C@H](O)[C@@H](C)/C=C/C=C/C=C/C=C/C=C/C=C/C=C/[C@H](O[C@@H]2O[C@H](C)[C@@H](O)[C@H](N)[C@@H]2O)C[C@@H]2O[C@](O)(C[C@@H](O)C[C@@H](O)[C@H](O)CC[C@@H](O)C[C@@H](O)CC(=O)O[C@H]1C)C[C@H](O)[C@H]2C(=O)O [AmB, Amphotericin B, reference compound]",surviving yeast colonies in dosage experiment,yeast [1],no significant differences
same,"yeast cell survival, fungicide alone",yeast [2],small reduction in yeast cell survival
"C[C@@H]1[C@H](O)[C@@H](C)/C=C/C=C/CC/C=C/C=C/C=C/C=C/C(O[C@H]2O[C@H](C)[C@@H](O)[C@H](N)[C@@H]2O)CC2O[C@](O)(CC(O)C(O)CCC(O)CC(O)CC(O)CC(=O)O[C@H]1C)CC(O)C2C(=O)O (stereo partly drawn) [Nys, Nystatin, reference compound]","yeast cell survival, fungicide alone",yeast [2],small reduction in yeast cell survival
"CC1(C)S[C@@H]2[C@H](NC(=O)[C@H](N)c3ccccc3)C(=O)N2[C@H]1C(=O)O [ampicillin, reference compound]",effect on bacteria when provided individually,"[3]; effective co-delivery concentration, without protein",no effects
deoxycholate,effect on yeast,yeast [2]; 1% and 10% added to yeast cells,little effect
"At1g25290 L: L-form Arabidopsis At1g25290 rhomboid protease, contains the RVL cyclin-binding domain (protein, listed as Arabidopsis thaliana) MVSVSLSHHNLWPPESGSTAFRGFATAASVHACHHVSRHLRLDFHLRSSLKKLQHFSDDARMKFARYQRVFVFNGANFLKSRVDIRLSQSSPFVCFFNGGESRLNPRGGEEGSSNPETSKRNTVNGRRWTNVLLAINVIMYIAQIASDGKVLTWGAKINSLIERGQLWRLATASVLHANPMHLMINCYSLNSIGPTAESLGGPKRFLAVYLTSAVARVLGSAMSYWFNKAPSVGASGAIFGLVGSVAVFVIRHKQMVRGGNEDLMQIAQIIALNMAMGLMSRR",sensitization of bacteria to ampicillin,"[3]; exogenous protein, same manner as Example 9",no activity
same,sensitization of yeast to antifungals AmB and Nys,yeast [2],no activity
"UBAC2: human UBAC2 isoform 1, fusion between a rhomboid pseudoprotease sequence and ubiquitin-associating domains (protein, listed as Homo sapiens) MQYFFGITAASNLPSGFLAPVFALFVPFYCSIPRVQVAQILGPLSITNKTLIYILGLQLFTSGSYIWIVAISGLMSGLCYDSKMFQVHQVLCIPSWMAKFFSWTLEPIFSSSEPTSEARIGMGATLDIQRQQRMELLDRQLMFSQFAQGRRQRQQQGGMINWNRLFPPLRQRQNVNYQGGRQSEPAAPPLEVSEEQVARLMEMGFSRGDALEALRASNNDLNVATNFLLQH",sensitization of bacteria to tetracycline,bacteria,not observed
same,sensitization of yeast to antifungals AmB and Nys,yeast [2],increased the sensitivity
